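Five concentrations, 48 hours, 96-well plates. GI50 is the concentration that inhibits growth by half. At the TGI there is no net growth.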
How the values were obtained:
Assay in all cases: growth of human tumour cells (NCI), 48 h; in the data active = GI50 below about 0.43 µM; inactive = the rest
786-0 renal = system: 786-0 renal
BT-549 breast = system: BT-549 breast
HT29 colon = system: HT29 colon
RXF 393 renal = system: RXF 393 renal
SF-268 CNS = system: SF-268 CNS
SNB-19 CNS = system: SNB-19 CNS
EKVX NSCLC = system: EKVX NSCLC
OVCAR-5 ovarian = system: OVCAR-5 ovarian
DU-145 prostate = system: DU-145 prostate
CCRF-CEM leukemia = system: CCRF-CEM leukemia
UACC-257 melanoma = system: UACC-257 melanoma
SK-MEL-2 melanoma = system: SK-MEL-2 melanoma
KM12 colon = system: KM12 colon
SK-MEL-28 melanoma = system: SK-MEL-28 melanoma
NCI/ADR-RES ovarian = system: NCI/ADR-RES ovarian
MDA-MB-231 breast = system: MDA-MB-231 breast
HOP-92 NSCLC = system: HOP-92 NSCLC
A498 renal = system: A498 renal
PC-3 prostate = system: PC-3 prostate
MOLT-4 leukemia = system: MOLT-4 leukemia
RPMI-8226 leukemia = system: RPMI-8226 leukemia
MCF7 breast = system: MCF7 breast
MALME-3M melanoma = system: MALME-3M melanoma
HCT-116 colon = system: HCT-116 colon
OVCAR-4 ovarian = system: OVCAR-4 ovarian
SNB-75 CNS = system: SNB-75 CNS
SF-295 CNS = system: SF-295 CNS
HOP-62 NSCLC = system: HOP-62 NSCLC
OVCAR-8 ovarian = system: OVCAR-8 ovarian
MDA-MB-435 = system: MDA-MB-435
HS 578T breast = system: HS 578T breast
OVCAR-3 ovarian = system: OVCAR-3 ovarian
NCI-H226 lung = system: NCI-H226 lung
HCT-15 colon = system: HCT-15 colon
SK-MEL-5 melanoma = system: SK-MEL-5 melanoma
LOX IMVI melanoma = system: LOX IMVI melanoma
SW-620 colon = system: SW-620 colon
CAKI-1 renal = system: CAKI-1 renal
HL-60(TB) leukemia = system: HL-60(TB) leukemia
NCI-H23 lung = system: NCI-H23 lung
SF-539 CNS = system: SF-539 CNS
UO-31 renal = system: UO-31 renal
HCC-2998 colon = system: HCC-2998 colon
M14 melanoma = system: M14 melanoma
UACC-62 melanoma = system: UACC-62 melanoma
TK-10 renal = system: TK-10 renal
ACHN renal = system: ACHN renal
A549 NSCLC = system: A549 NSCLC
U251 CNS = system: U251 CNS
IGROV1 ovarian = system: IGROV1 ovarian
SN12C renal = system: SN12C renal
NCI-H460 lung = system: NCI-H460 lung
K-562 leukemia = system: K-562 leukemia
SK-OV-3 ovarian = system: SK-OV-3 ovarian
T-47D breast = system: T-47D breast
SR leukemia = system: SR leukemia
COLO 205 colon = system: COLO 205 colon
NCI-H522 lung = system: NCI-H522 lung

COC(=O)[C@H](C[C@H](Cc1ccccc1)NC(=O)c1csc([C@@H](C[C@H](C(C)C)N(C)C(=O)[C@@H](NC(=O)[C@H]2CCCCN2C)C(C)C)OC(C)=O)n1)NC(=O)OCc1ccccc1
> 4040 nM: TGI (IGROV1 ovarian)
> 3670 nM: TGI (786-0 renal)
1520 nM: TGI (NCI/ADR-RES ovarian)
> 3460 nM: TGI (K-562 leukemia)
2670 nM: TGI (MALME-3M melanoma)
4530 nM: TGI (SK-MEL-2 melanoma)
1310 nM: TGI (DU-145 prostate)
2500 nM: TGI (SK-MEL-28 melanoma)
79.9 nM: TGI (NCI-H226 lung)
active: GI50 (786-0 renal) 1.59 nM | GI50 (BT-549 breast) < 0.9 nM | GI50 (HT29 colon) < 0.9 nM | GI50 (RXF 393 renal) < 0.9 nM | GI50 (SF-268 CNS) 0.974 nM | GI50 (SNB-19 CNS) < 0.9 nM | GI50 (EKVX NSCLC) 8.43 nM | GI50 (OVCAR-5 ovarian) 4.6 nM | GI50 (DU-145 prostate) < 0.9 nM | GI50 (CCRF-CEM leukemia) < 0.9 nM | GI50 (UACC-257 melanoma) 34.9 nM | GI50 (SK-MEL-2 melanoma) < 0.9 nM | GI50 (KM12 colon) < 0.9 nM | GI50 (SK-MEL-28 melanoma) 2.5 nM | GI50 (NCI/ADR-RES ovarian) 33.3 nM | GI50 (MDA-MB-231 breast) 1.08 nM | GI50 (HOP-92 NSCLC) 1.63 nM | GI50 (A498 renal) 1.12 nM | GI50 (PC-3 prostate) < 0.9 nM | GI50 (MOLT-4 leukemia) < 0.9 nM | GI50 (RPMI-8226 leukemia) < 0.9 nM | GI50 (MCF7 breast) < 0.9 nM | GI50 (MALME-3M melanoma) < 0.9 nM | GI50 (HCT-116 colon) < 0.9 nM | GI50 (OVCAR-4 ovarian) 12.4 nM | GI50 (SNB-75 CNS) < 0.9 nM | GI50 (SF-295 CNS) 1.28 nM | GI50 (HOP-62 NSCLC) < 0.9 nM | GI50 (OVCAR-8 ovarian) < 0.9 nM | GI50 (MDA-MB-435) < 0.9 nM | GI50 (HS 578T breast) < 0.9 nM | GI50 (OVCAR-3 ovarian) < 0.9 nM | GI50 (NCI-H226 lung) 1.44 nM | GI50 (HCT-15 colon) 4.01 nM | GI50 (SK-MEL-5 melanoma) < 0.9 nM | GI50 (LOX IMVI melanoma) < 0.9 nM | GI50 (SW-620 colon) < 0.9 nM | GI50 (CAKI-1 renal) 1.68 nM | GI50 (HL-60(TB) leukemia) < 0.9 nM | GI50 (NCI-H23 lung) 1.11 nM | GI50 (SF-539 CNS) < 0.9 nM | GI50 (UO-31 renal) 11.1 nM | GI50 (HCC-2998 colon) < 0.9 nM | GI50 (M14 melanoma) < 0.9 nM | GI50 (UACC-62 melanoma) < 0.9 nM | GI50 (TK-10 renal) 110 nM | GI50 (ACHN renal) 2.43 nM | GI50 (A549 NSCLC) 1.56 nM | GI50 (U251 CNS) < 0.9 nM | GI50 (IGROV1 ovarian) 1.19 nM | GI50 (SN12C renal) < 0.9 nM | GI50 (NCI-H460 lung) < 0.9 nM | GI50 (K-562 leukemia) < 0.9 nM | GI50 (SK-OV-3 ovarian) 1.99 nM | GI50 (T-47D breast) < 0.9 nM | GI50 (SR leukemia) < 0.9 nM | GI50 (COLO 205 colon) < 0.9 nM | GI50 (NCI-H522 lung) < 0.9 nM
2340 nM: TGI (RPMI-8226 leukemia)
2780 nM: TGI (UACC-257 melanoma)
> 4290 nM: TGI (SR leukemia)
10.1 nM: TGI (A498 renal)
< 0.9 nM: TGI (MDA-MB-435)
52.5 nM: TGI (NCI-H522 lung)
> 5640 nM: TGI (HCC-2998 colon)
1.78 nM: TGI (HL-60(TB) leukemia)
> 4900 nM: TGI (MDA-MB-231 breast)
3.67 nM: TGI (SF-539 CNS)
> 4930 nM: TGI (HS 578T breast)
365 nM: TGI (M14 melanoma)
18.2 nM: TGI (SK-MEL-5 melanoma)
68.9 nM: TGI (BT-549 breast)
> 9000 nM: TGI (RXF 393 renal) | TGI (SF-268 CNS) | TGI (SNB-19 CNS) | TGI (EKVX NSCLC) | TGI (OVCAR-5 ovarian) | TGI (CCRF-CEM leukemia) | TGI (KM12 colon) | TGI (HOP-92 NSCLC) | TGI (PC-3 prostate) | TGI (MOLT-4 leukemia) | TGI (MCF7 breast) | TGI (OVCAR-4 ovarian) | TGI (SNB-75 CNS) | TGI (SF-295 CNS) | TGI (HOP-62 NSCLC) | TGI (OVCAR-8 ovarian) | TGI (HCT-15 colon) | TGI (LOX IMVI melanoma) | TGI (SW-620 colon) | TGI (CAKI-1 renal) | TGI (NCI-H23 lung) | TGI (UO-31 renal) | TGI (UACC-62 melanoma) | TGI (TK-10 renal) | TGI (ACHN renal) | TGI (A549 NSCLC) | TGI (U251 CNS) | TGI (SN12C renal) | TGI (NCI-H460 lung) | TGI (SK-OV-3 ovarian) | TGI (T-47D breast)

Reference: PubChem BioAssay (NCI)
